As usually defined, the Kd is the equilibrium constant for the complex coming apart.

For test [1], the target named is galectin-3 (Homo sapiens, UniProt P17931). The test can be described thus: Fluorescence anisotropy assay, galectin-3. It is filed as binding. Particulars: about 1 μM galectin, 0.1 or 0.02 μM probe; NI = no inhibition at highest concentration tested; read-out: Calculated Kd, Gal-3. How it is done: (§1) FA was used to analyze interactions of probes and ligands with galectins in solution, as described before ([41][–][44]). A PheraStarFS plate reader, with software PHERAstar Mars version 2.10 R3 (BMG, Offenburg, Germany), was used, and FA of fluorescein-tagged saccharide probes was measured with excitation at 485 nm and emission at 520 nm.
(§2) The anisotropy (A) is given in units of mA, where the theoretical maximum is 400, and the value for free fluorescein typically 23. All conditions were measured in at least two duplicate wells.
(§3) In this study, the effect of inhibitors of the saccharide probe/galectin interaction was tested in two ways. In the first, a fixed low concentration of fluorescein-tagged probe (0.1 μM) and galectin were mixed with a range of concentrations of inhibitor. An optimal probe was chosen for each galectin to permit use of as low as possible concentration of galectin, while still achieving a sufficient rise in anisotropy for a reliable measuring range ([42][–][44]). […] With structurally defined inhibitors (pure synthetic galacto-oligosaccharides, small galactomannans, and reference ligands) the molecular mass, molar concentrations, and number of binding sites (in this case one binding site per ligand) were known and their dissociation constants (Kd) could therefore be directly calculated, using the data from the FA assay as described in Sörme et al. ([41]). […] Even if the molar concentration of the inhibitor is not known, the anisotropy value at a given condition permits calculation of the molar concentration of free galectin, as described below, and from this what fraction of the galectin is bound by a given mass per volume concentration of inhibitor. From this, the ratio of the molar concentration of the free inhibitor binding sites to their Kd value can be calculated, even if the FA assay cannot distinguish between the case when this is due to a few high affinity binding sites in the polysaccharide fraction or many of low affinity.

The target in test [2] is T1, galectin-9N (Homo sapiens, UniProt O00182).
T1 construct: the N-terminal CRD of galectin-9 (galectin-9N)
Nature of the test: Fluorescence anisotropy assay, galectin-9N. It is filed as binding. The settings on record: about 1 μM galectin, 0.1 or 0.02 μM probe; NI = no inhibition at highest concentration tested; read-out: Calculated Kd, Gal-9N. As to the method:
as §1, §2, §3

Test [3] addresses galectin-1 (Homo sapiens, UniProt P09382). Nature of the test: Fluorescence anisotropy assay, inhibition of probe binding to galectin-1. The settings on record: for Kd: about 1 μM galectin, 0.1 or 0.02 μM probe, 4 mM β-mercaptoethanol, NI = no inhibition at highest concentration tested, read-out: Calculated Kd, Gal-1. As to the method:
as §1, §2, §3

The target in test [4] is T2, Gal-9C (Homo sapiens, UniProt O00182).
T2 construct: Gal-9C
The test can be described thus: Fluorescence anisotropy assay, galectin-9C. The test is classed as binding. Particulars: about 1 μM galectin, 0.1 or 0.02 μM probe; read-out: Calculated Kd, Gal-9C. As to the method:
as §1, §2, §3

T1 sequence (O00182 17-148 limits assumed): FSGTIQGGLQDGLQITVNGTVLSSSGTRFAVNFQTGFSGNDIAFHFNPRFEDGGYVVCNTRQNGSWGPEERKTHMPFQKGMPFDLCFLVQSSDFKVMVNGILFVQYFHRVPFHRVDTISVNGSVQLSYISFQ
Chain of galectin-3 (P17931 whole entry): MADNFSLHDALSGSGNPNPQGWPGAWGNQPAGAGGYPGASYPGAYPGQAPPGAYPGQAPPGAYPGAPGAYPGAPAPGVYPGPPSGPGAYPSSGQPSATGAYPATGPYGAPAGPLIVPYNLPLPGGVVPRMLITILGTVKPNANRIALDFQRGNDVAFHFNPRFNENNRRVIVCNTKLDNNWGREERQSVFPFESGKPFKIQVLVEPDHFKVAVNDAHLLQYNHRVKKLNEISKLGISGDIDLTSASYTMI
Chain of galectin-1 (P09382 whole entry, species assumed): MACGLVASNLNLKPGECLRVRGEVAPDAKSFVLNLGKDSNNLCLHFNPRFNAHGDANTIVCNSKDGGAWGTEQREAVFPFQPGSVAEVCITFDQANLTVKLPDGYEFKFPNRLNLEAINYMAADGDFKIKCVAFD
T2 sequence (O00182 227-355 limits assumed): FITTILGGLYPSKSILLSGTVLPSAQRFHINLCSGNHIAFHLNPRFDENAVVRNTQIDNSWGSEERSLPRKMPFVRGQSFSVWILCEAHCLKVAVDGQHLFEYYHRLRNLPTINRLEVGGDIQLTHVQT

Take `OC[C@H]1O[C@@H](O[C@H]2[C@@H](O)[C@@H](CO)OC(O)[C@@H]2O)[C@H](O)[C@@H](O)[C@H]1O` (stereo partly shown) [Galβ1–3Gal]: the Kd in test [1] is 180 µM; in test [2] it was 150 µM.

`OC[C@H]1O[C@@H](O[C@@H]2[C@H](O)[C@@H](O)C(O)O[C@@H]2CO)[C@H](O)[C@@H](O)[C@H]1O` (stereo partly shown) [Galβ1–4Gal]: the Kd in test [2] is 1200 µM.

As to `OC[C@H]1O[C@@H](O[C@H]2[C@@H](O)[C@@H](CO)O[C@@H](OC[C@H]3OC(O)[C@H](O)[C@@H](O)[C@H]3O)[C@@H]2O)[C@H](O)[C@@H](O)[C@H]1O` (stereo partly shown) [Galβ1–3Galβ1–6Gal], the Kd is 1200 µM in test [3], 110 µM in test [1] and 68 µM in test [2].

As for `OC[C@H]1O[C@@H](OC[C@H]2O[C@@H](OC[C@H]3OC(O)[C@H](O)[C@@H](O)[C@H]3O)[C@H](O)[C@@H](O[C@@H]3O[C@H](CO)[C@H](O)[C@H](O)[C@H]3O)[C@H]2O)[C@H](O)[C@@H](O)[C@H]1O` (stereo partly shown) [Branched Galβ1–6(Galβ1–3)Galβ1–6Gal, Galβ1–6(Galβ1–3)Galβ1–6Gal], the Kd in test [3] is 800 µM; in test [1], 80 µM; in test [2] it was 51 µM.

Take `OC[C@H]1O[C@@H](OC[C@H]2OC(O)[C@H](O)[C@@H](O[C@@H]3O[C@H](CO)[C@H](O)[C@H](O)[C@H]3O)[C@H]2O)[C@H](O)[C@@H](O)[C@H]1O` (stereo partly shown) [Branched Galβ1–6(Galβ1–3)Gal, Galβ1–6(Galβ1–3)Gal]: the Kd in test [3] was 1300 µM; in test [1], 130 µM; in test [2], 100 µM.

For `COC1OC(CO)C(O)C(O)C1O` (stereo not drawn) [Methyl β-Gal, reference compound], the Kd in test [4] is 8600 µM; in test [2] it was 4000 µM.

Regarding `OC[C@H]1O[C@@H](OC[C@H]2OC(O)[C@H](O)[C@@H](O)[C@H]2O)[C@H](O)[C@@H](O)[C@H]1O` (stereo partly shown) [Galβ1–6Gal], the Kd in test [3] and in test [2] was more than 2000 µM throughout.

Consider `OC1OC[C@H](O)[C@H](O)[C@H]1O` (mixture of isomers) [L-Arabinose, L-arabinose, reference compound], for which the Kd in test [2] is 94000 µM.

`OC[C@H]1O[C@@H](OC[C@H]2O[C@@H](OC[C@H]3OC(O)[C@H](O)[C@@H](O)[C@H]3O)[C@H](O)[C@@H](O)[C@H]2O)[C@H](O)[C@@H](O)[C@H]1O` (stereo partly shown) [Galβ1–6Galβ1–6Gal]: the Kd in test [3], in test [1] and in test [2] was more than 2000 µM in each case.

Take Anginex [reference compound]: the “influence on galectin-1 interaction with Davanat®” value in test [3] (galectin-1 0.5 μM, tdga probe 0.1 μM, Fig. 7E) is listed as “no influence”. Further, the “potentiation of the inhibition of galectin-1 by ASF (factor)” value in test [3] (with or without β-mercaptoethanol, Fig. 7F) is “about 500”.
